Source: patent publication US20210352905A1, “COMPOSITIONS AND METHODS TO DISINFECT, TREAT AND PREVENT MICROBIAL INFECTIONS” (WIAB WATER INNOVATION AB, priority 2020, published 2021)

Key:
[1] = cited from earlier work
human rhinovirus (HRV) = details: low concentration hypochlorous acid nasal irrigation solution, in vitro, nasal epithelial cells; cited from earlier work
avian influenza virus = details: similar formulations, in vitro; cited from earlier work
pre-formed biofilm = details: Halstead et al, PLOS ONE (2015); cited from earlier work
S. aureus biofilms = details: 1% acetic acid alone, FIG. 2

Compound	pKa [1]	virus-killing effect (human rhinovirus (HRV))	effects against avian influenza virus (avian influenza virus)	concentrations of acetic acid that eradicated a pre-formed biofilm (pre-formed biofilm)	effect on the biofilm (S. aureus biofilms)
OCl [hypochlorous acid]	about 7	significant virus-killing effect	good effects	–	–
CC(=O)O [acetic acid]	–	–	–	0.10% to 2.5	only minor effect
